Literature values in publication PMC4791274, “Cerdulatinib, a novel dual SYK/JAK kinase inhibitor, has broad anti-tumor activity in both ABC and GCB types of diffuse large B cell lymphoma” (Oncotarget, 2015).

What was measured:
LY3 cell line = tested on: LY3 cell line; design: method as in PMID 22025527; settings: cited from earlier work
DHL2 cell line = tested on: DHL2 cell line; design: method as in PMID 22025527; settings: cited from earlier work
LY4 cell line = tested on: LY4 cell line; design: method as in PMID 22025527; settings: LY4, lacks surface immunoglobulins; cited from earlier work
DLBCL cells = settings: cited from earlier work
[1] = tested on: relapsed/refractory (R/R) DLBCL patients; design: method as in PMID 19965662; settings: 5 of 23 R/R DLBCL patients, phase I/II; cited from earlier work
DLBCL patients = settings: available clinical data; cited from earlier work
R/R patients (DLBCL) = tested on: R/R patients (DLBCL); design: method as in PMID 17389337; settings: number of patients, in 55 R/R patients; cited from earlier work
R/R DLBCL = tested on: R/R DLBCL; design: method as in PMID 26193343; settings: phase II, 80 R/R DLBCL; cited from earlier work

Cc1cccc(Nc2nc(N[C@@H]3CCCC[C@@H]3N)ncc2C(N)=O)c1 [PRT060318]
sensitivity to SYK selective inhibitor (LY3 cell line): insensitive
sensitivity to SYK selective inhibitor (DHL2 cell line): insensitive
sensitivity to selective SYK inhibition (LY4 cell line): resistant
impact on cell viability (DLBCL cells): minimal impact on cell viability

Cc1nc(Nc2ncc(C(=O)Nc3c(C)cccc3Cl)s2)cc(N2CCN(CCO)CC2)n1 [dasatinib]
impact on cell viability (DLBCL cells): minimal impact on cell viability

COc1cc(Nc2ncc(F)c(Nc3ccc4c(n3)N(COP(=O)(O)O)C(=O)C(C)(C)O4)n2)cc(OC)c1OC [Fostamatinib]
objective response [1]: 22%
fraction of DLBCL patients in whom active (DLBCL patients): ≤ 20%

Cn1cc(C2=C(c3cn(C4CCN(Cc5ccccn5)CC4)c4ccccc34)C(=O)NC2=O)c2ccccc21 [Enzastaurin]
complete responses (R/R patients (DLBCL)): 3
stable disease (R/R patients (DLBCL)): 1
fraction of DLBCL patients in whom active (DLBCL patients): ≤ 20%

C=CC(=O)N1CCC[C@@H](n2nc(-c3ccc(Oc4ccccc4)cc3)c3c(N)ncnc32)C1 [ibrutinib]
response rate of all DLBCL tumors (R/R DLBCL): 19%
responsive tumors, ABC subtype (R/R DLBCL): 37%
responsive tumors, GCB subtype (R/R DLBCL): 5%
